Results taken from patent US12162861B2, “Dopamine D3 receptor selective antagonists/partial agonists; method of making; and use thereof” (THE UNITED STATES OF AMERICA, AS REPRESENTED BY THE …, priority 2016, dated 2024).
“Also recorded” adds a separate entry of the source.

Assays:
Long-Evans rats = assay: Oxycodone self-administration in rats; type: in vivo, rat; conditions: for oxycodone self-administration (oxycodone taking): FR1, 5-25 mg/kg i.p., FIG. 3A
Experimental: MATERIALS AND METHODS: Male Long-Evans rats (Charles-River, Raleigh, N.C.) were used. […] All the experimental procedures were consistent with the “Principles of Laboratory Animal Care” published by National Institutes of Health (NIH publication 86-23, 1996) and were approved by the NIDA Animal Care and Use Committee.
Surgery: Rats (300-350 g) used for oxycodone self-administration were first implanted with an intravenous catheter. They were anaesthetized with pentobarbital (30 mg/kg i.p.) supplemented with chloral hydrate (140 mg/kg, i.p.). A small incision was next made to the right of the midline of the neck and the external jugular vein was externalized and an i.v. catheter, made of microrenathane (Braintree Scientific Inc., Braintree, MA, USA) was inserted with its tip reaching right atrium. The catheter was secured to the vein with silk suture and the other end fed subcutaneously around the back of the neck to exit near the back of the skull. The end was slipped over a bent 24-gauge stainless steel cannula (Plastic One Inc., Roanoke, VA, USA) with a threaded head used to secure a dummy cannula and, during experimentation, an infusion line. The catheter and the guide cannula were then secured to the skull with four stainless steel screws threaded into the skull and dental cement and the wound was sutured.
After surgery, the catheters were flushed daily with a gentamicin-heparin-saline solution (30 IU/ml heparin; ICN Biochemicals, Cleveland, OH, USA) as precaution against catheter clogging and infection. The animals were allowed to recover for at least 5 days before the behavioral training started.
Self-administration apparatus and oxycodone self-administration training: Rats in 3 experimental tests were first trained to self-administer oxycodone. The self-administration apparatus and procedures have been described previously (Xi et al., 2004, 2005). […] This infusion time was also served as a timeout period during which the light-tone cue was kept activated and animal' responses on the active lever were recorded but had no scheduled consequence. […]

opiate delta receptor = opiate delta receptor (Homo sapiens, UniProt P41143); assay: Binding to opiate delta receptor
squirrel monkeys = assay: THC priming-induced reinstatement of drug seeking in squirrel monkeys; type: in vivo, squirrel monkey (Saimiri sciureus); conditions: squirrel monkeys, 1, 3, and 10 mg/kg i.m., FIG. 9
Text: Reinstatement studies: In order to separately determine the reinstatement effects of a priming injection and drug-associated cues, we use two different extinction protocols (described below) that allow us to isolate the effects of these independent variables.
Priming-induced reinstatement: Before priming-induced reinstatement testing began, monkeys were allowed to self-administer the training dose of THC until they reached a stable baseline (5-10 sessions). In subsequent extinction sessions, lever presses led to i.v. saline infusions plus the visual cues that had been associated previously with THC. After at least two sessions of extinction, when responding had reached a low, stable level, a priming injection of THC (0.04 mg/kg i.v.) was given immediately before the next session, during which responding (FR10) continued to produce only i.v. saline injections and the discrete visual cues. […] A non-contingent i.v. injection of vehicle was also given before each extinction session as a control for the drug priming treatment.
Δ^9-tetrahydrocannabinol (THC, NIDA Drug Supply Program, Bethesda, MD, USA) was dissolved in a vehicle containing 1% Tween 80, 1% ethanol, and saline to obtain stock solution (0.4 mg/ml) and further diluted with saline. In the reinstatement tests, THC was injected i.v. (1 ml/kg) immediately before the session.

C57BL/6J mice = conditions: listed as (±)-29
Experimental: Twenty-four male mice (22-25 g) with a C57BL/6J genetic background were purchased from the Charles River Laboratories (Raleigh, NC).
Locomotor activity tests were conducted in open-field chambers (43×43×30 cm^3) (Accuscan Instruments, Inc., Columbus, OH, USA). […] On habituation days, the animals were moved to the test room, acclimated there for 10 min, and then placed in their assigned locomotor chambers. […] Then 15 min later, the animals were placed into the test chambers. Their locomotor activities were recorded every 20 min for 2 h using VersaMax version 3.0 software (Accuscan Instruments, Inc.). […] The locomotor activities were recorded for 2 h/day after each oxycodone injection. The locomotor behavioral data are expressed as means (±SEM). […] Posthoc Fisher's least significant difference was used for multiple comparisons. p<0.05 was considered statistically significant.

opiate delta receptor, sequence (P41143 whole entry): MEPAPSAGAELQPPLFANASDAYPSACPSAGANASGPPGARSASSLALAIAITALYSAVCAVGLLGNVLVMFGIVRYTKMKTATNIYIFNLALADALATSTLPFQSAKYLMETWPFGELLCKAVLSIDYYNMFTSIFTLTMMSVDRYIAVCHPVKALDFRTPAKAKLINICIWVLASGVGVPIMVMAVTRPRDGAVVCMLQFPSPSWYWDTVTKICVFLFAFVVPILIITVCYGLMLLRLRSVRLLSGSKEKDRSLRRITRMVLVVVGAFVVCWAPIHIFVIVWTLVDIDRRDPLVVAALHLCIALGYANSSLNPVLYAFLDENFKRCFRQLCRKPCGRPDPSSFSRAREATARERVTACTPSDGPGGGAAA

## CCc1cc(Cl)c(OC)c(N2CCN(CC(O)CCNC(=O)c3cc4ccccc4[nH]3)CC2)c1 (racemic) [Compound 29, N-(4-(4-(3-chloro-5-ethyl-2-methoxyphenyl)piperazin-1-yl)-3-hydroxybutyl)-1H-indole-2-carboxamide]
Long-Evans rats
  oxycodone self-administration (oxycodone taking): attenuated self-administration at 15 and 25 mg/kg
Long-Evans rats; listed as (±)-29
  oxycodone self-administration (oxycodone taking): attenuating effects
Long-Evans rats; pretreatment 5-15 mg/kg i.p., oxycodone 0.05 mg/kg/infusion, effect at 15 mg/kg
  acquisition of oxycodone self-administration, number of infusions: significantly lower number of infusions of oxycodone
Opiate delta receptor
  binding to opiate delta receptor: does not bind
Squirrel monkeys
  THC-induced reinstatement to drug seeking: attenuates THC-induced reinstatement to drug seeking; also recorded: blocked THC-induced reinstatement of drug seeking
Squirrel monkeys; listed as (±)-29
  THC-induced reinstatement to drug seeking: attenuation of THC-induced reinstatement to drug seeking
C57BL/6J mice; mice, 5, 15 mg/kg ip 15 min before oxycodone 4 mg/kg, day 2
  acute oxycodone-induced hyperactivity: dose-dependently inhibited oxycodone-induced hyperactivity
C57BL/6J mice; mice, day 9, oxycodone 4 mg/kg challenge without pretreatment
  oxycodone prime-induced locomotor sensitization after 2 days of withdrawal: long-lasting inhibition in oxycodone-induced increases in locomotion
